Tests used:
[1] = target: T1, human vasopressin V1b receptor (Homo sapiens, UniProt P47901); assay: biochemical
T1 sequence (P47901 1-424): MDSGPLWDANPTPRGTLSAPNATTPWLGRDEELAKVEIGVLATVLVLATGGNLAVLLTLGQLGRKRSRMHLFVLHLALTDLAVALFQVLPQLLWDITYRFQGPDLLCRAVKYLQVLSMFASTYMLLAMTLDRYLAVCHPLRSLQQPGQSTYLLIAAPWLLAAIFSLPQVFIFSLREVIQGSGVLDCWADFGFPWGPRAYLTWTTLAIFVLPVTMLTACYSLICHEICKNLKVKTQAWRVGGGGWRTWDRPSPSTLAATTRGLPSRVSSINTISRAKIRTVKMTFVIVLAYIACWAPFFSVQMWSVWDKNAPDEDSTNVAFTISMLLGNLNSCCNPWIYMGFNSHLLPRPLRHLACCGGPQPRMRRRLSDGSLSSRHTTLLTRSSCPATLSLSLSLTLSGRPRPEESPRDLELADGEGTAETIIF

[2] = target: human vasopressin V1a receptor (Homo sapiens, UniProt P37288); assay: Vasopressin V1a receptor binding assay; conditions: selectivity quotient, human V1a vs human V1b
human vasopressin V1a receptor, sequence (P37288 whole entry): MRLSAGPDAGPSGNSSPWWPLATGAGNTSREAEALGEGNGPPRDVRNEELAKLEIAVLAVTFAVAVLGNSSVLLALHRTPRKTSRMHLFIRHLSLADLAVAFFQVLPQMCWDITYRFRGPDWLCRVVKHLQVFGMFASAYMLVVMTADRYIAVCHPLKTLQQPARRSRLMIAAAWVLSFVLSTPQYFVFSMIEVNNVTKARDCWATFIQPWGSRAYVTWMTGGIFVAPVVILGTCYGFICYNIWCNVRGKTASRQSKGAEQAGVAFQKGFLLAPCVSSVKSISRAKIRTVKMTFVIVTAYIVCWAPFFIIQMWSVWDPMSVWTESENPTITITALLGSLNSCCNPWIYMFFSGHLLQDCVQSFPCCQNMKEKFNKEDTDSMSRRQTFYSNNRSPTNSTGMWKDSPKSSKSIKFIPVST

Q: What does the source list for `COc1ccc(S(=O)(=O)N2C(=O)[C@@](NC(=O)N3CCC(N4CCN(C5COC5)CC4)CC3)(c3cccnc3OC)c3cc(C#N)ccc32)c(OC)c1` [Example 31, N-[(3S)-5-cyano-1-(2,4-dimethoxyphenyl)sulfonyl-3-(2-methoxy-3-pyridyl)-2-oxo-indolin-3-yl]-4-[4-(oxetan-3-yl)piperazin-1-yl]piperidine-1-carboxamide]?
A: Ki [1]: 10 to 100 nM; Ki(h-V1a)/Ki(h-V1b) [2]: +++ (>75)

Q: With `CCOc1ccc(OC)cc1[C@]1(NC(=O)N2CCN(C3CCN(C4COC4)CC3)CC2)C(=O)N(S(=O)(=O)c2ccc(OC)cn2)c2ccc(C#N)cc21` [Example 32, N-[(3S)-5-cyano-3-(2-ethoxy-5-methoxy-phenyl)-1-[(5-methoxy-2-pyridyl)sulfonyl]-2-oxo-indolin-3-yl]-4-[1-(oxetan-3-yl)-4-piperidyl]piperazine-1-carboxamide] as the molecule, how does the Ki [1] read?
A: 10 to 100 nM

Q: What about the “Ki(h-V1a)/Ki(h-V1b)” value [2] of the same molecule?
A: +++ (>75)

Q: Which results are given for `CCOc1ccc(OC)cc1[C@]1(NC(=O)N2CCN(C3CCN(C4COC4)CC3)CC2)C(=O)N(S(=O)(=O)c2ccc(OC)cc2OC)c2ccc(C#N)cc21` [Example 33, N-[(3S)-5-cyano-1-(2,4-dimethoxyphenyl)sulfonyl-3-(2-ethoxy-5-methoxy-phenyl)-2-oxo-indolin-3-yl]-4-[1-(oxetan-3-yl)-4-piperidyl]piperazine-1-carboxamide]?
A: Ki [1]: 1 to 10 nM; Ki(h-V1a)/Ki(h-V1b) [2]: +++ (>75)

Q: `COc1ccc(S(=O)(=O)N2C(=O)[C@@](NC(=O)N3CCN(C4CCN(C5COC5)CC4)CC3)(c3cccnc3OC)c3cc(C#N)ccc32)cc1` [Example 34, N-[(3S)-5-cyano-1-(4-methoxyphenyl)sulfonyl-3-(2-methoxy-3-pyridyl)-2-oxo-indolin-3-yl]-4-[1-(oxetan-3-yl)-4-piperidyl]piperazine-1-carboxamide] was tested. Which Ki [1] did it give?
A: 10 to 100 nM

Q: What about the “Ki(h-V1a)/Ki(h-V1b)” value [2] of the same molecule?
A: ++ (25-75)

Q: How did the Ki [1] turn out when `CCOc1ccc(OC)cc1[C@]1(NC(=O)N2CCN(C3CCN(C4COC4)CC3)CC2)C(=O)N(S(=O)(=O)c2ccc(F)cc2OC)c2ccc(C#N)cc21` [Example 35, N-[(3S)-5-cyano-3-(2-ethoxy-5-methoxy-phenyl)-1-(4-fluoro-2-methoxy-phenyl)sulfonyl-2-oxo-indolin-3-yl]-4-[1-(oxetan-3-yl)-4-piperidyl]piperazine-1-carboxamide] was run?
A: 1 to 10 nM

Q: And the “Ki(h-V1a)/Ki(h-V1b)” value [2]?
A: +++ (>75)

Q: Which results are given for `COc1ccc(S(=O)(=O)N2C(=O)[C@@](NC(=O)N3CCC(C4CCN(C5COC5)CC4)CC3)(c3cccnc3OC)c3cc(C#N)ccc32)cc1` [Example 36, N-[(3S)-5-cyano-1-(4-methoxyphenyl)sulfonyl-3-(2-methoxy-3-pyridyl)-2-oxo-indolin-3-yl]-4-[1-(oxetan-3-yl)-4-piperidyl]piperidine-1-carboxamide]?
A: Ki [1]: 1 to 10 nM; Ki(h-V1a)/Ki(h-V1b) [2]: +++ (>75)

Q: How did the Ki [1] turn out when `COc1cc(F)ccc1S(=O)(=O)N1C(=O)[C@@](NC(=O)N2CCC(C3CCN(C4COC4)CC3)CC2)(c2cccnc2OC)c2cc(C#N)ccc21` [Example 37, N-[(3S)-5-cyano-1-(4-fluoro-2-methoxy-phenyl)sulfonyl-3-(2-methoxy-3-pyridyl)-2-oxo-indolin-3-yl]-4-[1-(oxetan-3-yl)-4-piperidyl]piperidine-1-carboxamide] was run?
A: < 1 nM

Q: What about the “Ki(h-V1a)/Ki(h-V1b)” value [2] of the same molecule?
A: +++ (>75)

Q: With `CCOc1ncccc1[C@]1(NC(=O)N2CC3CC2CN3C2CCN(C3COC3)CC2)C(=O)N(S(=O)(=O)c2ccc(OC)cc2OC)c2ccc(C#N)cc21` (stereo partly drawn) [Example 38, N-[(3S)-5-cyano-1-(2,4-dimethoxyphenyl)sulfonyl-3-(2-ethoxy-3-pyridyl)-2-oxo-indolin-3-yl]-5-[1-(oxetan-3-yl)-4-piperidyl]-2,5-diazabicyclo[2.2.1]heptane-2-carboxamide] as the molecule, how does the Ki [1] read?
A: 10 to 100 nM

Q: What about the “Ki(h-V1a)/Ki(h-V1b)” value [2] of the same molecule?
A: +++ (>75)

Q: What does the source list for `COc1ncccc1[C@]1(NC(=O)N2CCC(C3CCN(C4COC4)CC3)CC2)C(=O)N(S(=O)(=O)c2ccc(F)cc2)c2ccc(C#N)cc21` [Example 40, N-[(3S)-5-cyano-1-(4-fluorophenyl)sulfonyl-3-(2-methoxy-3-pyridyl)-2-oxo-indolin-3-yl]-4-[1-(oxetan-3-yl)-4-piperidyl]piperidine-1-carboxamide]?
A: Ki [1]: 1 to 10 nM; Ki(h-V1a)/Ki(h-V1b) [2]: + (10-<25)
